Laboratory results from ChEMBL document CHEMBL4311942, “Design of Trp-Rich Dodecapeptides with Broad-Spectrum Antimicrobial Potency and Membrane-Disruptive Mechanism” (J Med Chem, 2019).
Converted amounts (≈) assume the structure as drawn. Where a SMILES comes first, the peptide text is derived from it.

Experiments:
[1] = test system: Escherichia coli; assay: Antibacterial activity against Escherichia coli UB1005 incubated for 18 to 24 hrs by broth microdilution method; assay type: functional
[2] = test system: Escherichia coli; assay: Antibacterial activity against Escherichia coli ATCC 25922 incubated for 18 to 24 hrs by broth microdilution method; assay type: functional
[3] = test system: Erythrocyte; assay: Haemolytic activity in human erythrocytes assessed as lowest concentration causing 5% hemolysis after 1 hr; assay type: ADME, cell-based
[4] = test system: Salmonella typhimurium; assay: Antibacterial activity against Salmonella enterica serovar typhimurium C77-31 incubated for 18 to 24 hrs by broth microdilution method; assay type: functional, Salmonella enterica subsp. enterica serovar Typhimurium
[5] = Therapeutic index, ratio of MHC for human RBC to geometric mean of peptide MIC for Escherichia coli ATCC 25922; assay type: toxicity; conditions: pooled result: one value given for 6 cell lines, strains, targets or settings, read-out: TI
[6] = test system: Staphylococcus aureus; assay: Antibacterial activity against Staphylococcus aureus ATCC 25923 incubated for 18 to 24 hrs by broth microdilution method; assay type: functional
[7] = test system: Staphylococcus aureus; assay: Antibacterial activity against Staphylococcus aureus ATCC 29213 incubated for 18 to 24 hrs by broth microdilution method; assay type: functional
[8] = Cytotoxicity against mouse RAW264.7 cells assessed as cell survival at <= 32 uM after 24 hrs by MTT assay relative to control; assay type: cell-based; conditions: RAW264.7 cells, up to 32 µM, read-out: Activity
[9] = test system: Staphylococcus epidermidis; assay: Antibacterial activity against Staphylococcus epidermidis ATCC 12228 incubated for 18 to 24 hrs by broth microdilution method; assay type: functional
[10] = test system: Pseudomonas aeruginosa; assay: Antibacterial activity against Pseudomonas aeruginosa 25349 clinical isolate incubated for 18 to 24 hrs by broth microdilution method; assay type: functional
[11] = test system: Staphylococcus aureus; assay: Antibacterial activity against Staphylococcus aureus 11011 incubated for 18 to 24 hrs by broth microdilution method; assay type: functional
[12] = test system: Acinetobacter baumannii; assay: Antibacterial activity against Acinetobacter baumannii AB1902 clinical isolate incubated for 18 to 24 hrs by broth microdilution method; assay type: functional
[13] = Cytotoxicity against mouse RAW264.7 cells assessed as cell survival at < 32 uM after 24 hrs by MTT assay; assay type: cell-based; conditions: read-out: Activity
[14] = test system: Escherichia coli; assay: Antibacterial activity against Escherichia coli 20411 clinical isolate incubated for 18 to 24 hrs by broth microdilution method; assay type: functional
[15] = test system: Acinetobacter baumannii; assay: Antibacterial activity against Acinetobacter baumannii AB1901 clinical isolate incubated for 18 to 24 hrs by broth microdilution method; assay type: functional
[16] = test system: Escherichia coli; assay: Antibacterial activity against ciprofloxacin-resistant Escherichia coli ATCC 25922 incubated for 18 to 24 hrs; assay type: functional
[17] = Resistance index, ratio of MIC for antibacterial activity against ciprofloxacin-resistant Escherichia coli to MIC for Escherichia coli ATCC 25922 incubated for 18 to 24 hrs by broth microdilution method; assay type: functional

SMILES | MIC [1] | MIC [2] | MHC [3] | MIC [4] | selectivity ratio [5] | MIC [6] | MIC [7] | viability at 24 h [8] | MIC [9] | MIC [10] | MIC [11] | MIC [12] | viability at 24 h [13] | MIC [14] | MIC [15] | MIC [16] | Ratio [17]
CC(C)C[C@H](NC(=O)[C@H](CCCNC(=N)N)NC(=O)[C@H](CC(C)C)NC(=O)[C@H](CCCNC(=N)N)NC(=O)[C@@H](NC(=O)[C@H](CCCCN)NC(=O)[C@H](CC(C)C)NC(=O)[C@H](CCCNC(=N)N)NC(=O)[C@H](CC(C)C)NC(=O)[C@H](CCCNC(=N)N)NC(=O)[C@@H](N)CC(C)C)[C@@H](C)O)C(=O)N[C@@H](CCCCN)C(N)=O (H-LRLRLKTRLRLK-NH2) | 4 µM (≈ 6.26 µg/mL) | 4 µM (≈ 6.26 µg/mL) | > 128 µM | 16 µM (≈ 25 µg/mL) | 16 | 32 µM (≈ 50.1 µg/mL) | 32 µM (≈ 50.1 µg/mL) | ≥ 70% | 64 µM (≈ 100 µg/mL) | – | – | – | – | – | – | – | –
CC(C)C[C@H](NC(=O)[C@H](CCCNC(=N)N)NC(=O)[C@H](CCCCN)NC(=O)[C@H](Cc1c[nH]c2ccccc12)NC(=O)[C@@H](NC(=O)[C@H](CCCCN)NC(=O)[C@H](CCCCN)NC(=O)[C@H](CCCNC(=N)N)NC(=O)[C@H](CC(C)C)NC(=O)[C@H](CCCNC(=N)N)NC(=O)[C@@H](N)CCCNC(=N)N)[C@@H](C)O)C(=O)N[C@@H](Cc1c[nH]c2ccccc12)C(N)=O (H-RRLRKKTWKRLW-NH2) | 32 µM (≈ 55.2 µg/mL) | 16 µM (≈ 27.6 µg/mL) | > 128 µM | 64 µM (≈ 110 µg/mL) | 4.49 | > 128 µM | 64 µM (≈ 110 µg/mL) | ≥ 70% | 64 µM (≈ 110 µg/mL) | – | – | – | – | – | – | – | –
CC(C)C[C@H](NC(=O)[C@H](CCCNC(=N)N)NC(=O)[C@H](Cc1c[nH]c2ccccc12)NC(=O)[C@H](CCCNC(=N)N)NC(=O)[C@@H](NC(=O)[C@H](CCCCN)NC(=O)[C@H](Cc1c[nH]c2ccccc12)NC(=O)[C@H](CCCNC(=N)N)NC(=O)[C@H](CC(C)C)NC(=O)[C@H](CCCNC(=N)N)NC(=O)[C@@H](N)CCCNC(=N)N)[C@@H](C)O)C(=O)N[C@@H](CCCCN)C(N)=O (H-RRLRWKTRWRLK-NH2) | 4 µM (≈ 7.02 µg/mL) | 16 µM (≈ 28.1 µg/mL) | > 128 µM | 32 µM (≈ 56.1 µg/mL) | 18 | 16 µM (≈ 28.1 µg/mL) | 16 µM (≈ 28.1 µg/mL) | ≥ 70% | 16 µM (≈ 28.1 µg/mL) | – | – | – | – | – | – | – | –
CC(C)C[C@H](NC(=O)[C@H](CCCNC(=N)N)NC(=O)[C@H](Cc1c[nH]c2ccccc12)NC(=O)[C@H](CCCNC(=N)N)NC(=O)[C@@H](NC(=O)[C@H](Cc1c[nH]c2ccccc12)NC(=O)[C@H](Cc1c[nH]c2ccccc12)NC(=O)[C@H](CCCNC(=N)N)NC(=O)[C@H](CC(C)C)NC(=O)[C@H](CCCNC(=N)N)NC(=O)[C@@H](N)CCCNC(=N)N)[C@@H](C)O)C(=O)N[C@@H](CCCCN)C(N)=O (H-RRLRWWTRWRLK-NH2) | 4 µM (≈ 7.25 µg/mL) | 4 µM (≈ 7.25 µg/mL) | > 128 µM | 8 µM (≈ 14.5 µg/mL) | 45.2 | 8 µM (≈ 14.5 µg/mL) | 4 µM (≈ 7.25 µg/mL) | ≥ 70% | 8 µM (≈ 14.5 µg/mL) | – | – | – | – | – | – | – | –
CC(C)C[C@H](NC(=O)[C@H](CCCNC(=N)N)NC(=O)[C@H](CCCCN)NC(=O)[C@H](Cc1c[nH]c2ccccc12)NC(=O)[C@@H](NC(=O)[C@H](CCCCN)NC(=O)[C@H](CCCCN)NC(=O)[C@H](Cc1c[nH]c2ccccc12)NC(=O)[C@H](CC(C)C)NC(=O)[C@H](CCCNC(=N)N)NC(=O)[C@@H](N)CCCNC(=N)N)[C@@H](C)O)C(=O)N[C@@H](Cc1c[nH]c2ccccc12)C(N)=O (H-RRLWKKTWKRLW-NH2) | 4 µM (≈ 7.02 µg/mL) | 4 µM (≈ 7.02 µg/mL) | > 128 µM | 8 µM (≈ 14 µg/mL) | 35.9 | 16 µM (≈ 28.1 µg/mL) | 8 µM (≈ 14 µg/mL) | ≥ 70% | 8 µM (≈ 14 µg/mL) | – | – | – | – | – | – | – | –
CC(C)C[C@H](NC(=O)[C@H](CCCNC(=N)N)NC(=O)[C@H](CCCCN)NC(=O)[C@H](CCCNC(=N)N)NC(=O)[C@@H](NC(=O)[C@H](Cc1c[nH]c2ccccc12)NC(=O)[C@H](CCCCN)NC(=O)[C@H](CCCNC(=N)N)NC(=O)[C@H](CC(C)C)NC(=O)[C@H](Cc1c[nH]c2ccccc12)NC(=O)[C@@H](N)CCCNC(=N)N)[C@@H](C)O)C(=O)N[C@@H](CCCCN)C(N)=O (H-RWLRKWTRKRLK-NH2) | 16 µM (≈ 27.6 µg/mL) | 16 µM (≈ 27.6 µg/mL) | > 128 µM | 64 µM (≈ 110 µg/mL) | 8.98 | 32 µM (≈ 55.2 µg/mL) | 64 µM (≈ 110 µg/mL) | ≥ 70% | 16 µM (≈ 27.6 µg/mL) | – | – | – | – | – | – | – | –
CC(C)C[C@H](NC(=O)[C@H](CCCNC(=N)N)NC(=O)[C@H](Cc1c[nH]c2ccccc12)NC(=O)[C@H](CCCNC(=N)N)NC(=O)[C@@H](NC(=O)[C@H](CCCCN)NC(=O)[C@H](Cc1c[nH]c2ccccc12)NC(=O)[C@H](CCCNC(=N)N)NC(=O)[C@H](CC(C)C)NC(=O)[C@H](Cc1c[nH]c2ccccc12)NC(=O)[C@@H](N)CCCNC(=N)N)[C@@H](C)O)C(=O)N[C@@H](CCCCN)C(N)=O (H-RWLRWKTRWRLK-NH2) | 4 µM (≈ 7.14 µg/mL) | 2 µM (≈ 3.57 µg/mL) | > 128 µM | 8 µM (≈ 14.3 µg/mL) | 40.3 | 16 µM (≈ 28.5 µg/mL) | 4 µM (≈ 7.14 µg/mL) | ≥ 70% | 16 µM (≈ 28.5 µg/mL) | – | – | – | – | – | – | – | –
CC(C)C[C@H](NC(=O)[C@H](CCCNC(=N)N)NC(=O)[C@@H](NC(=O)[C@H](CCCNC(=N)N)NC(=O)[C@@H](NC(=O)[C@H](CCCCN)NC(=O)[C@@H](NC(=O)[C@H](CCCNC(=N)N)NC(=O)[C@H](CC(C)C)NC(=O)[C@H](CCCNC(=N)N)NC(=O)[C@@H](N)C(C)C)C(C)C)[C@@H](C)O)C(C)C)C(=O)N[C@@H](CCCCN)C(N)=O (H-VRLRVKTRVRLK-NH2) | 4 µM (≈ 6.09 µg/mL) | 4 µM (≈ 6.09 µg/mL) | > 128 µM | 16 µM (≈ 24.4 µg/mL) | 18 | 64 µM (≈ 97.5 µg/mL) | 16 µM (≈ 24.4 µg/mL) | ≥ 70% | 32 µM (≈ 48.7 µg/mL) | – | – | – | – | – | – | – | –
CC(C)[C@H](NC(=O)[C@H](CCCNC(=N)N)NC(=O)[C@H](Cc1c[nH]c2ccccc12)NC(=O)[C@H](CCCNC(=N)N)NC(=O)[C@@H](NC(=O)[C@H](CCCNC(=N)N)NC(=O)[C@H](Cc1c[nH]c2ccccc12)NC(=O)[C@H](CCCNC(=N)N)NC(=O)[C@@H](NC(=O)[C@H](CCCNC(=N)N)NC(=O)[C@@H](N)Cc1c[nH]c2ccccc12)C(C)C)C(C)C)C(=O)N[C@@H](CCCNC(=N)N)C(N)=O (H-WRVRWRVRWRVR-NH2) | 2 µM (≈ 3.62 µg/mL) | 4 µM (≈ 7.24 µg/mL) | > 128 µM | 4 µM (≈ 7.24 µg/mL) | 114 | 2 µM (≈ 3.62 µg/mL) | 1 µM (≈ 1.81 µg/mL) | – | 2 µM (≈ 3.62 µg/mL) | 4 µM (≈ 7.24 µg/mL) | 1 µM (≈ 1.81 µg/mL) | 2 µM (≈ 3.62 µg/mL) | > 90% | 2 µM (≈ 3.62 µg/mL) | 2 µM (≈ 3.62 µg/mL) | – | –
CCn1cc(C(=O)O)c(=O)c2cc(F)c(N3CCNCC3)cc21 [NORFLOXACIN] | 4 µM (≈ 1.28 µg/mL) | 0.125 µM (≈ 0.0399 µg/mL) | – | 0.25 µM (≈ 0.0798 µg/mL) | – | 2 µM (≈ 0.639 µg/mL) | 1 µM (≈ 0.319 µg/mL) | – | 1 µM (≈ 0.319 µg/mL) | 2 µM (≈ 0.639 µg/mL) | 2 µM (≈ 0.639 µg/mL) | > 128 µM | – | 0.0625 µM (≈ 0.02 µg/mL) | > 128 µM | 1 µM (≈ 0.319 µg/mL) | –
CO[C@H]1/C=C/O[C@@]2(C)Oc3c(C)c(O)c4c(O)c(c(/C=N/N5CCN(C)CC5)c(O)c4c3C2=O)NC(=O)/C(C)=C\C=C\[C@H](C)[C@H](O)[C@@H](C)[C@@H](O)[C@@H](C)[C@H](OC(C)=O)[C@@H]1C [RIFAMPIN] | 8 µM (≈ 6.58 µg/mL) | 4 µM (≈ 3.29 µg/mL) | – | 4 µM (≈ 3.29 µg/mL) | – | 0.25 µM (≈ 0.206 µg/mL) | 0.25 µM (≈ 0.206 µg/mL) | – | 0.25 µM (≈ 0.206 µg/mL) | 16 µM (≈ 13.2 µg/mL) | – | 1 µM (≈ 0.823 µg/mL) | – | 4 µM (≈ 3.29 µg/mL) | 1 µM (≈ 0.823 µg/mL) | 8 µM (≈ 6.58 µg/mL) | 2
